Measured values published in US11976061B2, “Preparation of benzimidazolone derivatives as novel diacylglyceride O-acyltransferase 2 inhibitors” (Merck Sharp & Dohme LLC, priority 2020, dated 2024).

The compounds below were run against T1, human DGAT2 (hDGAT2) (Homo sapiens, UniProt Q96PD7) (assay: DGAT2 Enzymatic Activity Assay). Details: membrane prep of Sf-9 cells expressing hDGAT2; 25 μM diolein, 5 μM 13C oleoyl-CoA; 13C18-triolein by LC/MS/MS; read-out: DGAT2 IC50.
T1 construct: made in house; host or cells: Sf-9 insect cells (baculovirus), membrane fraction
T1 sequence (Q96PD7 1-388): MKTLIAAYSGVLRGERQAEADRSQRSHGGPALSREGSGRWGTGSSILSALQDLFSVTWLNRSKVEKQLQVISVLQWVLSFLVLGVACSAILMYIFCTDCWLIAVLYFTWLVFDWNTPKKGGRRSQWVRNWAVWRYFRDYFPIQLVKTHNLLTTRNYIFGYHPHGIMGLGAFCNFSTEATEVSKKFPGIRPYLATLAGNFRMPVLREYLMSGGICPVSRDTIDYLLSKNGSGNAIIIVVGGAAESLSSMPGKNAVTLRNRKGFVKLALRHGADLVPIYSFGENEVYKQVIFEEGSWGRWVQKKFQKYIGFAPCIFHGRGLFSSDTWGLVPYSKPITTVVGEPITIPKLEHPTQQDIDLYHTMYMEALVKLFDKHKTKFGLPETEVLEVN
Type: biochemical
Procedure, shortened: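 Membranes from Sf-9 cells expressing untagged human DGAT2 (8 ng/μL) incubated at rt in 100 mM Tris·Cl pH 7.0, 20 mM MgCl2, 5% ethanol with 25 μM diolein and 5 μM 13C oleoyl-CoA. 13C18-triolein product quantified by LC/MS/MS against 13C21-triolein internal standard; IC50 by 4-parameter fit.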
In the case of `CC(C)n1c(=O)n(-c2cccc(OC(F)F)c2)c2ncc(C(=O)N[C@@]3(C)CCS(=O)(=O)C3)cc21` [Example 89, 3-[3-(difluoromethoxy)phenyl]-1-isopropyl-N-[(3S)-3-methyl-1,1-dioxo-thiolan-3-yl]-2-oxo-imidazo[4,5-b]pyridine-6-carboxamide], the IC50 is reported as 288 nM. With `CC(C)n1c(=O)n(-c2cccc(OC(F)F)c2)c2ncc(C(=O)N[C@]3(C)CCS(=O)(=O)C3)cc21` [Example 90, 3-[3-(difluoromethoxy)phenyl]-1-isopropyl-N-[(3R)-3-methyl-1,1-dioxo-thiolan-3-yl]-2-oxo-imidazo[4,5-b]pyridine-6-carboxamide] the IC50 was 193 nM. With `CC(C)n1c(=O)n(-c2cccc(OC(F)(F)F)c2)c2ncc(C(=O)NC3(C)CS(=O)(=O)C3)cc21` [Example 91, 1-isopropyl-N-(3-methyl-1,1-dioxo-thietan-3-yl)-2-oxo-3-[3-(trifluoromethoxy)phenyl]imidazo[4,5-b]pyridine-6-carboxamide] the IC50 was 355 nM. For `CC(C)n1c(=O)n(-c2cccc(OC(F)(F)F)c2)c2ncc(C(=O)NC3(C)CCS(=O)(=O)CC3)cc21` [Example 92, 1-isopropyl-N-(4-methyl-1,1-dioxo-thian-4-yl)-2-oxo-3-[3-(trifluoromethoxy)phenyl]imidazo[4,5-b]pyridine-6-carboxamide], the IC50 was 236 nM. Compound `CC(C)n1c(=O)n(-c2cccc(OC(F)(F)C(F)F)c2)c2ncc(C(=O)NC3(C)CS(=O)(=O)C3)cc21` [Example 93, 1-isopropyl-N-(3-methyl-1,1-dioxo-thietan-3-yl)-2-oxo-3-[3-(1,1,2,2-tetrafluoroethoxy)phenyl]imidazo[4,5-b]pyridine-6-carboxamide] has an IC50 of 24 nM. `CC(C)n1c(=O)n(-c2cccc(OC(F)(F)C(F)F)c2)c2ncc(C(=O)N[C@@]3(C)CCS(=O)(=O)C3)cc21` [Example 94, 1-isopropyl-N-[(3S)-3-methyl-1,1-dioxo-thiolan-3-yl]-2-oxo-3-[3-(1,1,2,2-tetrafluoroethoxy)phenyl]imidazo[4,5-b]pyridine-6-carboxamide] showed an IC50 of 108 nM. `CC(C)n1c(=O)n(-c2cccc(OC(F)(F)C(F)F)c2)c2ncc(C(=O)N[C@]3(C)CCS(=O)(=O)C3)cc21` [Example 95, 1-isopropyl-N-[(3R)-3-methyl-1,1-dioxo-thiolan-3-yl]-2-oxo-3-[3-(1,1,2,2-tetrafluoroethoxy)phenyl]imidazo[4,5-b]pyridine-6-carboxamide] was tested, and the IC50 was 23 nM. Compound `CCOc1cccc(-n2c(=O)n(C(C)C)c3cc(C(=O)NC4(C)CS(=O)(=O)C4)cnc32)c1` [Example 96, 3-(3-ethoxyphenyl)-1-isopropyl-N-(3-methyl-1,1-dioxo-thietan-3-yl)-2-oxo-imidazo[4,5-b]pyridine-6-carboxamide] has an IC50 of 93 nM. For `CCOc1cccc(-n2c(=O)n(C(C)C)c3cc(C(=O)N[C@@]4(C)CCS(=O)(=O)C4)cnc32)c1` [Example 97, 3-(3-ethoxyphenyl)-1-isopropyl-N-[(3S)-3-methyl-1,1-dioxo-thiolan-3-yl]-2-oxo-imidazo[4,5-b]pyridine-6-carboxamide], the IC50 was 154 nM. With `CCOc1cccc(-n2c(=O)n(C(C)C)c3cc(C(=O)N[C@]4(C)CCS(=O)(=O)C4)cnc32)c1` [Example 98, 3-(3-ethoxyphenyl)-1-isopropyl-N-[(3R)-3-methyl-1,1-dioxo-thiolan-3-yl]-2-oxo-imidazo[4,5-b]pyridine-6-carboxamide] the IC50 was 102 nM. With `CCOc1cccc(-n2c(=O)n(C(C)C)c3cc(C(=O)NC4(C)CCS(=O)(=O)CC4)cnc32)c1` [Example 99, 3-(3-ethoxyphenyl)-1-isopropyl-N-(4-methyl-1,1-dioxo-thian-4-yl)-2-oxo-imidazo[4,5-b]pyridine-6-carboxamide] the IC50 was 52 nM. Compound `CC(C)Oc1cccc(-n2c(=O)n(C(C)C)c3cc(C(=O)NC4(C)CS(=O)(=O)C4)cnc32)c1` [Example 100, 3-(3-isopropoxyphenyl)-1-isopropyl-N-(3-methyl-1,1-dioxo-thietan-3-yl)-2-oxo-imidazo[4,5-b]pyridine-6-carboxamide] has an IC50 of 692 nM. `CC(C)Oc1cccc(-n2c(=O)n(C(C)C)c3cc(C(=O)NC4(C)CCS(=O)(=O)CC4)cnc32)c1` [Example 101, 3-(3-isopropoxyphenyl)-1-isopropyl-N-(4-methyl-1,1-dioxo-thian-4-yl)-2-oxo-imidazo[4,5-b]pyridine-6-carboxamide] was tested, and the IC50 was 506 nM. `CC(C)n1c(=O)n(-c2cc(OC(F)F)ccc2F)c2ncc(C(=O)NC3(C)CS(=O)(=O)C3)cc21` [Example 102, 3-[5-(difluoromethoxy)-2-fluoro-phenyl]-1-isopropyl-N-(3-methyl-1,1-dioxo-thietan-3-yl)-2-oxo-imidazo[4,5-b]pyridine-6-carboxamide] gave an IC50 of 148 nM. Work on `CC(C)n1c(=O)n(-c2cccc(OC(F)F)c2)c2ncc(C(=O)NC3(C)CS(=O)(=O)C3)cc21` [Example 104, 3-[3-(difluoromethoxy)phenyl]-1-isopropyl-N-(3-methyl-1,1-dioxo-thietan-3-yl)-2-oxo-imidazo[4,5-b]pyridine-6-carboxamide] yielded an IC50 of 94 nM. With `CC(C)n1c(=O)n(-c2cccc(OC(F)F)c2)c2c(F)cc(C(=O)N[C@@]3(C)CCS(=O)(=O)C3)cc21` [Example 109, 1-[3-(difluoromethoxy)phenyl]-7-fluoro-3-isopropyl-N-[(3S)-3-methyl-1,1-dioxo-thiolan-3-yl]-2-oxo-benzimidazole-5-carboxamide] the IC50 was 9 nM. `CC(C)n1c(=O)n(-c2cccc(OC(F)F)c2)c2c(F)cc(C(=O)N[C@]3(C)CCS(=O)(=O)C3)cc21` [Example 110, 1-[3-(difluoromethoxy)phenyl]-7-fluoro-3-isopropyl-N-[(3R)-3-methyl-1,1-dioxo-thiolan-3-yl]-2-oxo-benzimidazole-5-carboxamide] gave an IC50 of 7 nM. `CC(C)n1c(=O)n(-c2cccc(OC(F)F)c2)c2c(F)cc(C(=O)NC3(C)CCS(=O)(=O)CC3)cc21` [Example 111, 1-[3-(difluoromethoxy)phenyl]-7-fluoro-3-isopropyl-N-(4-methyl-1,1-dioxo-thian-4-yl)-2-oxo-benzimidazole-5-carboxamide] showed an IC50 of 68 nM.

Same assay, conditions: membrane prep of Sf-9 cells expressing hDGAT2; 25 μM diolein, 5 μM 13C oleoyl-CoA; 13C18-triolein by LC/MS/MS; read-out: Human DGAT2 IC50
For `CC(C)n1c(=O)n(-c2cc(OC(F)F)ccc2F)c2ccc(C(=O)N[C@]3(C)CCS(=O)(=O)C3)cc21` [Example 82, (R)-1-(5-(Difluoromethoxy)-2-fluorophenyl)-3-isopropyl-N-(3-methyl-1,1-dioxidotetrahydrothiophen-3-yl)-2-oxo-2,3-dihydro-1H-benzo[d]imidazole-5-carboxamide], the IC50 was 5.7 nM. Compound `CC(C)n1c(=O)n(-c2cncc(OC(F)F)c2)c2ccc(C(=O)NC3(C)CS(=O)(=O)C3)cc21` [Example 83, 1-(5-(Difluoromethoxy)pyridin-3-yl)-3-isopropyl-N-(3-methyl-1,1-dioxidothietan-3-yl)-2-oxo-2,3-dihydro-1H-benzo[d]imidazole-5-carboxamide] has an IC50 of 150 nM. With `CC(C)n1c(=O)n(-c2cncc(C3CC3)c2)c2ccc(C(=O)NC3(C)CS(=O)(=O)C3)cc21` [Example 84, 1-(5-Cyclopropylpyridin-3-yl)-3-isopropyl-N-(3-methyl-1,1-dioxidothietan-3-yl)-2-oxo-2,3-dihydro-1H-benzo[d]imidazole-5-carboxamide] the IC50 was 71 nM. With `CC(C)n1c(=O)n(-c2cccc(OC(F)(F)C(F)F)c2)c2ncc(C(=O)NC3(C)CCS(=O)(=O)CC3)cc21` [Example 87, 1-isopropyl-N-(4-methyl-1,1-dioxo-thian-4-yl)-2-oxo-3-[3-(1,1,2,2-tetrafluoroethoxy)phenyl]imidazo[4,5-b]pyridine-6-carboxamide] the IC50 was 20 nM. Compound `CC(C)n1c(=O)n(-c2cccc(OC(F)F)c2)c2cnc(C(=O)NC3(C)CS(=O)(=O)C3)cc21` [Example 105, 3-(3-(difluoromethoxy)phenyl)-1-isopropyl-N-(3-methyl-1,1-dioxidothietan-3-yl)-2-oxo-2,3-dihydro-1H-imidazo[4,5-c]pyridine-6-carboxamide] has an IC50 of 1800 nM. Work on `CC(C)n1c(=O)n(-c2cccc(OC(F)F)c2)c2cnc(C(=O)NC3(C)CCS(=O)(=O)CC3)cc21` [Example 106, 3-(3-(difluoromethoxy)phenyl)-1-isopropyl-N-(4-methyl-1,1-dioxidotetrahydro-2H-thiopyran-4-yl)-2-oxo-2,3-dihydro-1H-imidazo[4,5-c]pyridine-6-carboxamide] yielded an IC50 of 69.8 nM. Work on `CC(C)n1c(=O)n(-c2cccc(OC(F)F)c2)c2ccc(C(=O)NC3(C)CS(=O)(=O)C3)nc21` [Example 107, 1-(3-(difluoromethoxy)phenyl)-3-isopropyl-N-(3-methyl-1,1-dioxidothietan-3-yl)-2-oxo-2,3-dihydro-1H-imidazo[4,5-b]pyridine-5-carboxamide] yielded an IC50 of 1080 nM. With `CC(C)n1c(=O)n(-c2cccc(OC(F)F)c2)c2c(F)cc(C(=O)NC3(C)CS(=O)(=O)C3)cc21` [Example 108, 1-[3-(difluoromethoxy)phenyl]-7-fluoro-3-isopropyl-N-(3-methyl-1,1-dioxo-thietan-3-yl)-2-oxo-benzimidazole-5-carboxamide] the IC50 was 12 nM.
